Reference: US9593157B2, “Chimeric polypeptides comprising G protein-coupled receptors and VHH antibodies” (VIB VZW, priority 2013, dated 2017)

What was measured:
Format in all cases: binding
[1] = molecular target: T1, M2Δi3R-Nb9-8 (Homo sapiens, UniProt P08172, A373T/DEL233-372/K374R/N2D/N3D/N6D/N9D); assay: Radioligand competition on M2Δi3R-Nb9-8 fusion (data not shown)
T1 construct: linker […]; His6 (C); made in house
T1 sequence (P08172 with tags, fused parts or gaps N2D/N3D/N6D/N9D/DEL233-372/A373T/K374R): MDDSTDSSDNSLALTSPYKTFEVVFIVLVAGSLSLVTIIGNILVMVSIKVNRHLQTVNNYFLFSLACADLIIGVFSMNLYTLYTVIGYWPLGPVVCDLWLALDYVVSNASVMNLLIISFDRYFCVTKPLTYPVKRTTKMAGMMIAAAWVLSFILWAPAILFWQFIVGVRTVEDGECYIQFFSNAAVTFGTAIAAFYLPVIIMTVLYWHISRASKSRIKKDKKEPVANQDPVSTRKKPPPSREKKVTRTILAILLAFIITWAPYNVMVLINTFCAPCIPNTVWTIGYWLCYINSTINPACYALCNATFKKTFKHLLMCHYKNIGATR

[2] = molecular target: T2, M2Δi3R-Nb9-1 (Homo sapiens, UniProt P08172, A373T/DEL233-372/K374R/N2D/N3D/N6D/N9D); assay: Comparative radioligand competition assay ([3H]-N methyl scopolamine) on Sf9 membranes expressing M2Δi3R-Nb9-1
T2 construct: linker […]; made in house; host or cells: Sf9 insect cells (baculovirus), membranes
T2 sequence (P08172 with tags, fused parts or gaps N2D/N3D/N6D/N9D/DEL233-372/A373T/K374R): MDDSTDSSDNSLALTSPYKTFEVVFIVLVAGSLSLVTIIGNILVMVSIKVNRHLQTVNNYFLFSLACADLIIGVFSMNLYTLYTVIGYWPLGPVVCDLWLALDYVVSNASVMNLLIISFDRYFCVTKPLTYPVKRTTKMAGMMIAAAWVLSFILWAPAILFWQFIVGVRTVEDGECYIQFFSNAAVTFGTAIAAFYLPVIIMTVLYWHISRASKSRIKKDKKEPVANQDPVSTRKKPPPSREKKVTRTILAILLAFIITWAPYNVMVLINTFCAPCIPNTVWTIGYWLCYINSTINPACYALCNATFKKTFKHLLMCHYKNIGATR
Description: (§1) Radioligand competition binding experiments were performed on Sf9 insect cell membranes expressing either M2Δi3R (no Single-domain antibody fused) or M2Δi3R-Nb9-1. […] After filtration, membranes retained on the filter plates were washed with ice-cold wash buffer (20 mM Tris-HCl pH7.4), and filters were dried for 1 hour at 50° C.

[3] = molecular target: T3, M2Δi3R (Homo sapiens, UniProt P08172, A373T/DEL233-372/K374R/N2D/N3D/N6D/N9D); assay: Comparative radioligand competition assay ([3H]-N methyl scopolamine) on Sf9 membranes expressing non-fused M2Δi3R; settings: [3H]-NMS 0.5 nM
T3 construct: made in house; host or cells: Sf9 insect cells (baculovirus), membranes
T3 sequence (P08172 with tags, fused parts or gaps N2D/N3D/N6D/N9D/DEL233-372/A373T/K374R): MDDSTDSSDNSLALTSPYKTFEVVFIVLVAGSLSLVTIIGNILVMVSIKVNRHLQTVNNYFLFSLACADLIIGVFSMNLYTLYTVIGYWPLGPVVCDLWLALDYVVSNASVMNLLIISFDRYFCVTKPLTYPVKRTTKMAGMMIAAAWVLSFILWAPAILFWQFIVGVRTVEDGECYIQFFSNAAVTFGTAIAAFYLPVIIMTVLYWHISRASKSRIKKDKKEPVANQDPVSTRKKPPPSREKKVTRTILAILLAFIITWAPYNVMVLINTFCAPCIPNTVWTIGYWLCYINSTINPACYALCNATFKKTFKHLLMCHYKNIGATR
Description: as §1

[4] = molecular target: T4, hMor1-34GS-Nb33 (Homo sapiens, UniProt P35372); assay: biochemical
T4 construct: HA signal peptide (N); made in house; host or cells: Sf9 insect cells (baculovirus), membranes

[5] = molecular target: T5, hMor1-34GS-Nb10 (Homo sapiens, UniProt P35372); assay: biochemical
T5 construct: HA signal peptide (N); made in house; host or cells: Sf9 insect cells (baculovirus), membranes

[6] = molecular target: T6, non-fused β2AR365N in presence of exogenously added Nb80 (Homo sapiens, UniProt P07550, E27Q/G16R/N187E); assay: Radioligand competition assay on non-fused β2AR365N in complex with exogenously added Nb80; settings: epinephrine bound active state; 5 μM Nb80 in 250 μl
T6 construct: made in house; host or cells: Sf9 insect cells (baculovirus), membranes; purified Nb80 added
Description: To compare the efficiency of fused versus non-fused Nb80 to stabilize the active state of β2AR, the pharmacological properties of the β2AR365N-Nb80 fusion was compared to the non-fused β2AR365N in complex with exogenously added Nb80. […] The β2AR365N-Nb69 fusion and β2AR365N in complex with exogenously added Nb69 were assayed in parallel as controls.
Radioligand competition binding experiments were performed on Sf9 insect cell membranes (5 μg total protein) expressing either β2AR365N (no Single-domain antibody fused), β2AR365N-Nb80 or β2AR365N-Nb69. […] Data represent the mean±SEM of each data point performed in triplicate.

[7] = molecular target: β2AR (Homo sapiens, UniProt P07550); assay: Affinity of Single-domain antibody for β2AR
[8] = molecular target: Mor1 (Homo sapiens, UniProt P35372); assay: Affinity of Single-domain antibody for Mor1

For `C[N+](C)(C)CCOC(N)=O` [carbachol], the “affinity of M2Δi3R-Nb9-8 fusion compared to non-fused M2Δi3R” value [1] was “higher affinity”.

For `C[N+](C)(C)CC#CCN1CCCC1=O` [oxotremorine M], the “IC50 ratio IC50m2Δi3R/IC50highM2Δi3R-Nb9-1” value [2] was 316, the IC50 ([2]; [3H]-NMS 0.5 nM, Sf9 membranes, IC50high) was 310 nM and the IC50 [3] was 98400 nM.

`Cc1cc(O)cc(C)c1C[C@H](N)C(=O)N[C@H](CCCNC(=N)N)C(=O)N[C@H]1Cc2ccccc2CN(CCC(N)=O)C1=O` [KGOP01] was tested, and the IC50 [4] was 3.8 nM, the “IC50Nb33/IC50Nb10 (fold preference)” value [4] was 20 and the IC50 [5] was 76.7 nM.

B1: Nb80: β2AR specific Single-domain antibody stabilizing the active state, SEQ ID NO:13 (protein)
VHH: QVQLQESGGGLVQAGGSLRLSCAASGSIFSINTMGWYRQAPGKQRELVAAIHSGGSTNYANSVKGRFTISRDNAANTVYLQMNSLKPEDTAVYYCNVKDYGAVLYEYDYWGQGTQVTVSS
modifications: Nb80
In the case of B1, the “molar excess of exogenously added Nb80 over β2AR required to constrain the receptor with same efficiency as the fusion” value [6] is reported as 12500 fold.

B2: Nb69: mock Single-domain antibody specific for Muscarinic3 receptor, SEQ ID NO:15 (protein)
VHH: QVQLQESGGGLVQAGGSLRLSCTASGLTLSNYAMGWFRQAPGKEREFVAADTWNGNTYHQDSVKGRFTISRDNAKNTVYLQMNYLKPEDTAVYYCAARGSRRSAYYSSSDYTYRGQGTQVTVSS
modifications: Nb69
In the case of B2, the “affinity for β2AR” value [7] is reported as “no detectable affinity”.

B3: Nb10: Single-domain antibody specific for a chemokine GPCR, SEQ ID NO:20 (protein)
VHH: QVQLQESGGGLVQPGGSLRLSCAASGSFRSIVSMAWYRQAPGKQRELVASSNSGGSTNYADSVKGRFTISRDNAKNTVYLQMNSLKPEDTAVYWCNVQNRLPGFDAFSGRSIAETYWGQGTQVTVSS
modifications: Nb10
With B3 the “affinity for Mor1” value [8] was “no detectable affinity”.
